Assay results: PubChem BioAssay (NCI)
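96-well plates; 48 h exposure; 5 concentrations. Endpoints by linear interpolation between flanking doses. Not reached: highest tested concentration assigned. GI50 marks 50% less growth. TGI is the concentration that stops growth completely.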

Legend:
Assay in all cases: DTP human tumour cell line panel, 48 h
OVCAR-5 ovarian = test system: OVCAR-5 ovarian
SW-620 colon = test system: SW-620 colon
T-47D breast = test system: T-47D breast
LOX IMVI melanoma = test system: LOX IMVI melanoma
HL-60(TB) leukemia = test system: HL-60(TB) leukemia
HCT-116 colon = test system: HCT-116 colon
A549 NSCLC = test system: A549 NSCLC
OVCAR-3 ovarian = test system: OVCAR-3 ovarian
BT-549 breast = test system: BT-549 breast
U251 CNS = test system: U251 CNS
HOP-92 NSCLC = test system: HOP-92 NSCLC
EKVX NSCLC = test system: EKVX NSCLC
CCRF-CEM leukemia = test system: CCRF-CEM leukemia
M14 melanoma = test system: M14 melanoma
UACC-62 melanoma = test system: UACC-62 melanoma
RPMI-8226 leukemia = test system: RPMI-8226 leukemia
K-562 leukemia = test system: K-562 leukemia
NCI-H226 lung = test system: NCI-H226 lung
SN12C renal = test system: SN12C renal
IGROV1 ovarian = test system: IGROV1 ovarian
HCT-15 colon = test system: HCT-15 colon
COLO 205 colon = test system: COLO 205 colon
OVCAR-8 ovarian = test system: OVCAR-8 ovarian
SK-OV-3 ovarian = test system: SK-OV-3 ovarian
UO-31 renal = test system: UO-31 renal
786-0 renal = test system: 786-0 renal
NCI-H460 lung = test system: NCI-H460 lung
ACHN renal = test system: ACHN renal
MOLT-4 leukemia = test system: MOLT-4 leukemia

C=C1C(=O)O[C@H]2[C@H]1CC/C(COC(=O)/C=C\C(=O)NCc1ccc(Cn3c(=O)sn(-c4ccc(C#N)cc4)c3=O)cc1)=C\CC[C@@]1(C)O[C@@H]21
TGI (OVCAR-5 ovarian): 1840 nM
GI50 (SW-620 colon): 353 nM
TGI (SW-620 colon): 1220 nM
GI50 (T-47D breast): 836 nM
TGI (T-47D breast): 2180 nM
GI50 (LOX IMVI melanoma): 437 nM
TGI (LOX IMVI melanoma): 1160 nM
GI50 (HL-60(TB) leukemia): 961 nM
TGI (HL-60(TB) leukemia): 3490 nM
GI50 (HCT-116 colon): 218 nM
TGI (HCT-116 colon): 956 nM
GI50 (A549 NSCLC): 916 nM
TGI (A549 NSCLC): 2420 nM
GI50 (OVCAR-3 ovarian): 306 nM
TGI (OVCAR-3 ovarian): 953 nM
GI50 (BT-549 breast): 697 nM
TGI (BT-549 breast): 1650 nM
GI50 (U251 CNS): 759 nM
TGI (U251 CNS): 1620 nM
GI50 (HOP-92 NSCLC): 622 nM
TGI (HOP-92 NSCLC): 1450 nM
GI50 (EKVX NSCLC): 797 nM
TGI (EKVX NSCLC): 1570 nM
GI50 (CCRF-CEM leukemia): 200 nM
TGI (CCRF-CEM leukemia): 17900 nM
GI50 (M14 melanoma): 699 nM
TGI (M14 melanoma): 1660 nM
GI50 (UACC-62 melanoma): 722 nM
TGI (UACC-62 melanoma): 1450 nM
GI50 (RPMI-8226 leukemia): 443 nM
TGI (RPMI-8226 leukemia): 2590 nM
GI50 (K-562 leukemia): 707 nM
TGI (K-562 leukemia): 50000 nM
GI50 (NCI-H226 lung): 1360 nM
TGI (NCI-H226 lung): 5630 nM
GI50 (SN12C renal): 671 nM
TGI (SN12C renal): 1570 nM
GI50 (IGROV1 ovarian): 592 nM
TGI (IGROV1 ovarian): 1300 nM
GI50 (HCT-15 colon): 505 nM
TGI (HCT-15 colon): 1950 nM
GI50 (COLO 205 colon): 541 nM
TGI (COLO 205 colon): 1410 nM
GI50 (OVCAR-8 ovarian): 802 nM
TGI (OVCAR-8 ovarian): 2700 nM
GI50 (SK-OV-3 ovarian): 4020 nM
TGI (SK-OV-3 ovarian): 10500 nM
GI50 (UO-31 renal): 468 nM
TGI (UO-31 renal): 1070 nM
GI50 (786-0 renal): 727 nM
TGI (786-0 renal): 1520 nM
GI50 (NCI-H460 lung): 844 nM
TGI (NCI-H460 lung): 1830 nM
GI50 (ACHN renal): 545 nM
TGI (ACHN renal): 1140 nM
GI50 (MOLT-4 leukemia): 840 nM
TGI (MOLT-4 leukemia): 4820 nM
